Test results from publication PMC10004090, “Novel Arylsulfonylhydrazones as Breast Anticancer Agents Discovered by Quantitative Structure-Activity Relationships” (Molecules, 2023).
Like-named read-outs stand apart in the source and are kept apart here. Each block holds one compound with its values, some of them ahead of it.

Experiments:
MCF-7 [1] = details: ligand efficiency LE = pIC50/N; training set 3a–o and cisplatin; cited from earlier work
MDA-MB-231 = assay: MTT cytotoxicity test on MDA-MB-231 cell line; format: cell-based, human; details: for LE MDA-MB-231 Exp: LE = pIC50/N from MTT IC50, 72 h; for IC50: MTT, 72 h; for MDA-MB-231 SI: selectivity index = IC50 on Neuro-2a/IC50 on MDA-MB-231
Method: (§1) The anticancer activity of the novel arylsulfonylhydrazones was tested on two BC cell lines: MCF-7 and MDA-MB-231. The cell line MCF-7 originates from human breast adenocarcinoma and expresses estrogen receptor alpha (ER-α), while the cell line MDA-MB-231 represents TNBC adenocarcinoma and lacks any receptor [40]. To test the cytotoxicity of the compounds on healthy cells, they were incubated within Neuro-2a cells, which are mouse neuroblasts isolated from brain tissue.
(§2) The in vitro antineoplastic activity of the newly synthesized compounds was evaluated against human BC cell lines of different molecular types: the triple negative MDA-MB-231 cell line and the ER/PR/Her2 positive variant MCF-7, as well as against mouse neuroblast cells, Neuro-2a. All cell lines were purchased from the German Collection of Microorganisms and Cell Cultures (DSMZ GmbH, Braunschweig, Germany) and cultivated according to supplier’s instructions. Cells were cultured in an RPMI 1640 growth medium supplemented with 10% fetal bovine serum (FBS) and 5% L-glutamine, and incubated under standard conditions of 37 °C and 5% humidified CO2 atmosphere.
(§3) The cytostatic activity of the experimental compounds was investigated using an established methodology for assessing cell viability known as the Mosmann MTT method. The assay is colorimetric and measures the activity of mitochondrial enzymes by reducing the yellow dye MTT (3-(4,5-dimethylthiazol-2-yl)-2,5-diphenyltetrazolium bromide) to violet formazan crystals. Exponential-phased cells were harvested and seeded (100 μL/well) in 96-well plates at 1.5 × 10^5 density and incubated for 24 h. Cell cultures were treated and exposed to various concentrations (200–6.25 μM) of the tested compounds for 72 h, following which cell survival was quantified as percentage (%) relative to untreated control (100% cell viability).
(§4) Experimental data were processed using nonlinear regression analysis in the GraphPad Prism® software program. Semi-logarithmic “dose-response” curves were plotted and half-inhibitory concentrations (IC50) of the screened compounds were calculated for each of the tested tumor cell lines.

MCF-7 [2] = assay: MTT cytotoxicity test on MCF-7 cell line; format: cell-based, human; details: for IC50: MTT, 72 h; for MCF-7 SI: selectivity index = IC50 on Neuro-2a/IC50 on MCF-7
Method: as §1, §2, §3, §4

Neuro-2a = assay: MTT cytotoxicity test on Neuro-2a cells (healthy-cell control); format: cell-based, mouse; details: for IC50: MTT, 72 h, healthy cells
Method: as §1, §2, §3, §4

MDA-MB-468 = details: ligand efficiency LE = pIC50/N; training set 5a–k and doxorubicin; cited from earlier work
MCF-7 [3] = details: ligand efficiency LE = pIC50/N; training set 5a–k and doxorubicin; cited from earlier work

Compound: N.N.[Cl][Pt][Cl] [Cisplatin, reference compound]
- LE MCF-7 (MCF-7 [1]): 0.931
- LE MDA-MB-231 Exp (MDA-MB-231): 0.840
- IC50 (MDA-MB-231): 63.4 ± 7.2 µM
- IC50 (MCF-7 [2]): 50.3 ± 6.5 µM

Compound: COc1ccc2[nH]cc(/C=N\NS(=O)(=O)c3ccccc3)c2c1 [Compound 1a, N’-[(Z)-(5-methoxy-1H-indol-3-yl)methylidene]benzenesulfonohydrazide]
- IC50 (Neuro-2a; Mus musculus, N2a): 5.2 ± 0.9 µM
- IC50 (MDA-MB-231; Homo sapiens, MDA-MB-231, 72 h): 3.1 ± 0.7 µM
- IC50 (MCF-7 [2]; Homo sapiens, MCF7, 72 h): < 1 µM
- IC50 (MCF-7 [2]): 0.6 ± 0.2 µM

- melting point: 201 to 202 °C
Compound: COc1ccc2[nH]cc(/C=N/NS(=O)(=O)c3ccc(C)cc3)c2c1 [Compound 1b, N’-[(E)-(5-methoxy-1H-indol-3-yl)methylidene]-4-methylbenzenesulfonohydrazide]
- IC50 (Neuro-2a; Mus musculus, N2a): 4 ± 0.4 µM
- IC50 (MDA-MB-231; Homo sapiens, MDA-MB-231, 72 h): 8.5 ± 2.1 µM
- IC50 (MCF-7 [2]; Homo sapiens, MCF7, 72 h): < 1 µM
- IC50 (MCF-7 [2]): 0.8 ± 0.3 µM
- MCF-7 SI (MCF-7 [2]): 5.000

- melting point: 209 to 210 °C
Compound: CC(=O)n1cc(/C=N/NS(=O)(=O)c2ccccc2)c2ccccc21 [Compound 1c, N’-[(E)-(1-acetyl-1H-indol-3-yl)methylidene]benzenesulfonohydrazide]
- IC50 (Neuro-2a; Mus musculus, N2a): 36.2 ± 4.3 µM
- IC50 (MDA-MB-231; Homo sapiens, MDA-MB-231, 72 h): 19.2 ± 3.4 µM
- IC50 (MCF-7 [2]; Homo sapiens, MCF7, 72 h): < 1 µM
- IC50 (MCF-7 [2]): 0.9 ± 0.4 µM

Compound: CC(=O)n1cc(/C=N/NS(=O)(=O)c2ccc(C)cc2)c2ccccc21 [Compound 1d, N’-[(E)-(1-acetyl-1H-indol-3-yl)methylidene]-4-methylbenzenesulfonohydrazide]
- IC50 (Neuro-2a; Mus musculus, N2a): 82.8 ± 8.1 µM
- IC50 (MDA-MB-231; Homo sapiens, MDA-MB-231, 72 h): 65.1 ± 6.1 µM
- MDA-MB-231 SI (MDA-MB-231): 1.272
- IC50 (MCF-7 [2]; Homo sapiens, MCF7, 72 h): 1.8 ± 0.6 µM
- MCF-7 SI (MCF-7 [2]): 46

Compound: O=S(=O)(N/N=C/c1c[nH]c2ccc(Cl)cc12)c1ccccc1 [Compound 1e, N’-[(E)-(5-chloro-1H-indol-3-yl)methylidene]benzenesulfonohydrazide]
- IC50 (Neuro-2a; Mus musculus, N2a): 6.5 ± 1.1 µM
- IC50 (MDA-MB-231; Homo sapiens, MDA-MB-231, 72 h): < 1 µM
- IC50 (MDA-MB-231): 0.9 ± 0.2 µM
- IC50 (MCF-7 [2]; Homo sapiens, MCF7, 72 h): < 1 µM
- IC50 (MCF-7 [2]): 0.5 ± 0.1 µM
- MCF-7 SI (MCF-7 [2]): 13

Compound: COc1ccc(/C=N/NS(=O)(=O)c2ccccc2)cc1OC [Compound 1f, N’-[(E)-(3,4-dimethoxyphenyl)methylidene]benzenesulfonohydrazide]
- IC50 (MDA-MB-231; Homo sapiens, MDA-MB-231): 266 ± 19.7 µM
- MDA-MB-231 SI (MDA-MB-231): 0.410
- IC50 (MCF-7 [2]; Homo sapiens, MCF7): 5.97 ± 2.1 µM

Compound: COc1ccc(/C=N/NS(=O)(=O)c2ccc(C)cc2)cc1OC [Compound 1g, N’-[(E)-(3,4-dimethoxyphenyl)methylidene]-4-methylbenzenesulfonohydrazide]
- IC50 (MDA-MB-231; Homo sapiens, MDA-MB-231): > 500 µM
- IC50 (MCF-7 [2]; Homo sapiens, MCF7): 56.1 ± 8.4 µM
- MCF-7 SI (MCF-7 [2]): 2.415

Compound: O=S(=O)(N/N=C/c1ccc(Cl)cc1)c1ccccc1 [Compound 1h, N’-[(E)-(4-chlorophenyl)methylidene]benzenesulfonohydrazide]
- IC50 (MDA-MB-231; Homo sapiens, MDA-MB-231): 63.1 ± 6.9 µM
- MDA-MB-231 SI (MDA-MB-231): 1.861
- IC50 (MCF-7 [2]; Homo sapiens, MCF7): 157 ± 11.2 µM
- MCF-7 SI (MCF-7 [2]): 0.747

Compound: Cc1ccc(S(=O)(=O)N/N=C\c2ccc3c(c2)OC(F)(F)O3)cc1 [Compound 3a]
- LE MCF-7 (MCF-7 [1]): 0.174

Compound: Cc1ccc(S(=O)(=O)N/N=C\c2cc(Br)cs2)cc1 [Compound 3b]
- LE MCF-7 (MCF-7 [1]): 0.203

Compound: Cc1ccc(S(=O)(=O)N/N=C\c2cc(-c3ccccc3)cs2)cc1 [Compound 3c]
- LE MCF-7 (MCF-7 [1]): 0.189

Compound: Cc1ccc(S(=O)(=O)N/N=C\c2ccc(F)c(Oc3ccccc3)c2)cc1 [Compound 3d]
- LE MCF-7 (MCF-7 [1]): 0.121

Compound: Cc1ccc(S(=O)(=O)N/N=C\c2cccc(C(F)(F)F)c2Cl)cc1 [Compound 3e]
- LE MCF-7 (MCF-7 [1]): 0.148

Compound: COc1cc(/C=N\NS(=O)(=O)c2ccc(C)cc2)ccc1F [Compound 3f]
- LE MCF-7 (MCF-7 [1]): 0.207

Compound: COc1ccc(/C=N\NS(=O)(=O)c2ccc(C)cc2)cc1[N+](=O)[O-] [Compound 3g]
- LE MCF-7 (MCF-7 [1]): 0.143

Compound: Cc1ccc(S(=O)(=O)N/N=C\c2c[nH]nc2-c2ccccc2)cc1 [Compound 3h]
- LE MCF-7 (MCF-7 [1]): 0.141

Compound: COc1ccc(Br)cc1/C=N\NS(=O)(=O)c1ccc(C)cc1 [Compound 3i]
- LE MCF-7 (MCF-7 [1]): 0.170

Compound: Cc1ccc(S(=O)(=O)N/N=C\c2ccc(F)cc2C(F)(F)F)cc1 [Compound 3j]
- LE MCF-7 (MCF-7 [1]): 0.148

Compound: COc1cccc(/C=N\NS(=O)(=O)c2ccc(C)cc2)c1Cl [Compound 3k]
- LE MCF-7 (MCF-7 [1]): 0.197

Compound: Cc1ccc(S(=O)(=O)N/N=C\c2c(C)cccc2Cl)cc1 [Compound 3l]
- LE MCF-7 (MCF-7 [1]): 0.180

Compound: Cc1ccc(S(=O)(=O)N/N=C\c2cccc(Br)n2)cc1 [Compound 3m]
- LE MCF-7 (MCF-7 [1]): 0.176

Compound: Cc1ccc(S(=O)(=O)N/N=C\c2cccn2C)cc1 [Compound 3n]
- LE MCF-7 (MCF-7 [1]): 0.207

Compound: Cc1ccc(S(=O)(=O)N/N=C\c2ccccc2OC(F)(F)F)cc1 [Compound 3o]
- LE MCF-7 (MCF-7 [1]): 0.166

Compound: COc1ccc(S(=O)(=O)N/N=C\c2cn(CCN3CCOCC3)c3ccccc23)cc1 [Compound 5a]
- LE MDA-MB-468 (MDA-MB-468): 0.141
- LE MCF-7 (MCF-7 [3]): 0.136

Compound: Cc1ccc(S(=O)(=O)N/N=C\c2cn(CCN3CCOCC3)c3ccccc23)cc1 [Compound 5b]
- LE MDA-MB-468 (MDA-MB-468): 0.146
- LE MCF-7 (MCF-7 [3]): 0.140

Compound: O=S(=O)(N/N=C\c1cn(CCN2CCOCC2)c2ccccc12)c1ccccc1 [Compound 5c]
- LE MDA-MB-468 (MDA-MB-468): 0.149
- LE MCF-7 (MCF-7 [3]): 0.143

Compound: O=S(=O)(N/N=C\c1cn(CCN2CCOCC2)c2ccccc12)c1ccc(F)cc1 [Compound 5d]
- LE MDA-MB-468 (MDA-MB-468): 0.161
- LE MCF-7 (MCF-7 [3]): 0.150

Compound: O=[N+]([O-])c1ccc(S(=O)(=O)N/N=C\c2cn(CCN3CCOCC3)c3ccccc23)cc1 [Compound 5e]
- LE MDA-MB-468 (MDA-MB-468): 0.138
- LE MCF-7 (MCF-7 [3]): 0.128

Compound: O=S(=O)(N/N=C\c1cn(CCN2CCOCC2)c2ccccc12)c1ccc(Cl)cc1 [Compound 5f]
- LE MDA-MB-468 (MDA-MB-468): 0.170
- LE MCF-7 (MCF-7 [3]): 0.163

Compound: O=S(=O)(N/N=C\c1cn(CCN2CCOCC2)c2ccccc12)c1ccc2ccccc2c1 [Compound 5h]
- LE MDA-MB-468 (MDA-MB-468): 0.110
- LE MCF-7 (MCF-7 [3]): 0.116

Compound: COc1cccc2c1C(=O)c1c(O)c3c(c(O)c1C2=O)C[C@@](O)(C(=O)CO)C[C@@H]3O[C@H]1C[C@H](N)[C@H](O)[C@H](C)O1 [Doxorubicin]
- LE MDA-MB-468 (MDA-MB-468): 0.182
- LE MCF-7 (MCF-7 [3]): 0.185

Compound: N’-[(E)-(5-methoxy-1-methyl-1H-indol-3-yl)methylidene]benzenesulfonohydrazide [Compound 1i]
- Neuro-2a LE (Neuro-2a; LE = pIC50/N): 0.161
- IC50 (Neuro-2a): 135 ± 10.9 µM
- LE MDA-MB-231 Exp (MDA-MB-231): 0.178
- IC50 (MDA-MB-231): 54.8 ± 7.4 µM
- MDA-MB-231 SI (MDA-MB-231): 2.462
- LE MCF-7 Exp (MCF-7 [2]; LE = pIC50/N from MTT IC50, 72 h): 0.158
- IC50 (MCF-7 [2]): 165 ± 8.6 µM
- MCF-7 SI (MCF-7 [2]): 0.818
